Tests used:
[1] = molecular target: T1, GST-tagged Tankyrase-1 (1023-1327 aa) (Homo sapiens, UniProt O95271); test: biochemical; details: read-out: IC50 tankyrase 1 (enzyme assay)
T1 construct: GST-tagged Tankyrase-1 (1023-1327 aa)
Text: (§1) aq (aqueous), h (hour), g (gram), L (liter), mg (milligram), MHz (Megahertz), min. (minute), mm (millimeter), mmol (millimole), mM (millimolar), m.p. (melting point), eq (equivalent), mL (milliliter), L (microliter), ACN (acetonitrile), AcOH (acetic acid), CDCl3 (deuterated chloroform), CD3OD (deuterated methanol), CH3CN (acetonitrile), c-hex (cyclohexane), DCC (dicyclohexyl carbodiimide), DCM (dichloromethane), DIC (diisopropyl carbodiimide), DIEA (diisopropylethyl-amine), DMF (dimethylformamide), DMSO (dimethylsulfoxide), DMSO-d6 (deuterated dimethylsulfoxide), EDC (1-(3-dimethyl-amino-propyl)-3-ethylcarbodiimide), ESI (Electro-spray ionization), EtOAc (ethyl acetate), Et2O (diethyl ether), EtOH (ethanol), HATU (dimethylamino-([1,2,3]triazolo[4,5-b]pyridin-3-yloxy)-methylene]-dimethylammonium hexafluorophosphate), HPLC (High Performance Liquid Chromatography), i-PrOH (2-propanol), K2CO3 (potassium carbonate), LC (Liquid Chromatography), MeOH (methanol), MgSO4 (magnesium sulfate), MS (mass spectrometry), MTBE (Methyl tert-butyl ether), NaHCO3 (sodium bicarbonate), NaBH4 (sodium borohydride), NMM (N-methyl morpholine), NMR (Nuclear Magnetic Resonance), PyBOP (benzotriazole-1-yl-oxy-trispyrrolidino-phosphonium hexafluorophosphate), RT (room temperature), Rt (retention time), SPE (solid phase extraction), TBTU (2-(1-H-benzotriazole-1-yl)-1,1,3,3-tetramethyluromium tetrafluoro borate), TEA (triethylamine), TFA (trifluoroacetic acid), THF (tetrahydrofuran), TLC (Thin Layer Chromatography), UV (Ultraviolet). Description of the In Vitro Assays Abbreviations: GST=Glutathione-S-transferase FRET=Fluorescence resonance energy transfer HTRF®=(homogenous time resolved fluorescence) HEPES=4-(2-hydroxyethyl)-1-piperazine ethanesulfonic acid buffer DTT=Dithiothreitol BSA=bovine serum albumin CHAPS=detergent; CHAPS=3[(3-cholamidopropyl)dimethylammonio]-1-propanesulfonate Streptavidin-XLent® is a high grade streptavidin-XL665 conjugate for which the coupling conditions have been optimized to yield a conjugate with enhanced performances for some assays, particularly those requiring high sensitivity.
(§2) The autoparsylation assay is run in two steps: the enzymatic reaction in which GST-tagged Tankyrase-1, resp Tankyrase-2 transferred biotinylated ADP-ribose to itself from biotinylated NAD as co-substrate and the detection reaction where a time resolved FRET between cryptate labelled anti-GST bound to the GST tag of the enzyme and Xlent® labelled-streptavidin bound the biotin-parsylation residue is analysed. The autoparsylation activity was detectable directly via the increase in HTRF signal.
(§3) The autoparsylation assay is performed as 384-well HTRF® (Cisbio, Codolet, France) assay format in Greiner low volume nb 384-well microtiter plates and is used for high throughput screen. […] The reaction is stopped by the addition of 1 μl 50 mM EDTA solution. […] The ratio of the emission signals is determined. The full value used is the inhibitor-free reaction. […] The inhibitory values (IC50) are determined using either the program Symyx Assay Explorer® or Condosseo® from GeneData.

[2] = molecular target: GST-tagged Tankyrase-2 (873-1166 aa) (Homo sapiens, UniProt Q9H2K2); test: biochemical
GST-tagged Tankyrase-2 (873-1166 aa), sequence (Q9H2K2 873-1166): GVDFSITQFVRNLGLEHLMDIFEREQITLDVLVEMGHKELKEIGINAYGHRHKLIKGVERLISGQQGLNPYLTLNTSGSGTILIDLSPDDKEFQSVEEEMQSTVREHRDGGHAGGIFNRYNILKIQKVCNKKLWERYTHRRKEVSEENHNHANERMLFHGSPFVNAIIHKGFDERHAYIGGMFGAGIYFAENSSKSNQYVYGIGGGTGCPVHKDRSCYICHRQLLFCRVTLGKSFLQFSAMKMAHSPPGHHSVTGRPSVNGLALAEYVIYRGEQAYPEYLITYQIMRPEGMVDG
Text: as §1, §2, §3

T1 sequence (O95271 1023-1327): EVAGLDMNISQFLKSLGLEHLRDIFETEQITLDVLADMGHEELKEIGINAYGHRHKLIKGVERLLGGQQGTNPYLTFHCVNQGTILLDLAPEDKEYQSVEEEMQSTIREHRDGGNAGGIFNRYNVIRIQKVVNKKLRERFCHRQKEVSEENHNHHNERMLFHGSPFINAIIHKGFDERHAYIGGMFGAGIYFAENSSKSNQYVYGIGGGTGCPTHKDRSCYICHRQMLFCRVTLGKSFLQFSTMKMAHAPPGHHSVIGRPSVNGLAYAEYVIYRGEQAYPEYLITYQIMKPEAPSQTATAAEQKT

**Q.** Which IC50 [1] does the source give for `CCC(O)(CC)c1ccc(-c2nc3ccc(F)cc3c(=O)[nH]2)cc1` [Compound A14, 2-[4-(1-ethyl-1-hydroxy-propyl)phenyl]-6-fluoro-3H-quinazolin-4-one] here?
**A.** Its IC50 is under 300 nM.

**Q.** And the IC50 [2]?
**A.** The IC50 was 300 to 3000 nM.

**Q.** What does the source list for `O=c1[nH]c(-c2ccc(C3(O)CCCC3)cc2)nc2ccc(F)cc12` [Compound A16, 6-fluoro-2-[4-(1-hydroxycyclopentyl)phenyl]-3H-quinazolin-4-one]?
**A.** IC50 [1]: < 300 nM; IC50 [2]: 300 to 3000 nM

**Q.** How did the IC50 [1] turn out when `CC(C)(O)c1ccc(-c2nc3c(F)cc(F)c(F)c3c(=O)[nH]2)cc1` [Compound A26, 5,6,8-trifluoro-2-[4-(1-hydroxy-1-methyl-ethyl)-phenyl]-3H-quinazolin-4-one] was run?
**A.** Its IC50 is under 300 nM.

**Q.** What about the IC50 [2] of the same compound?
**A.** Its IC50 is 300 to 3000 nM.

**Q.** What does the source list for `Cc1cc(F)cc2c(=O)[nH]c(-c3ccc(N4CCC(O)CC4)cc3)nc12` [Compound A29, 6-fluoro-2-[4-(4-hydroxy-piperidin-1-yl)-phenyl]-8-methyl-3H-quinazolin-4-one]?
**A.** IC50 [1]: 300 to 3000 nM; IC50 [2]: 300 to 3000 nM

**Q.** Which IC50 [1] does the source give for `Cc1cc(F)cc2c(=O)[nH]c(-c3ccc(N4CCC(CO)CC4)cc3)nc12` [Compound A31, 6-fluoro-2-[4-(4-hydroxymethyl-piperidin-1-yl)-phenyl]-8-methyl-3H-quinazolin-4-one] here?
**A.** Its IC50 is 300 to 3000 nM.

**Q.** And the IC50 [2]?
**A.** Its IC50 is 300 to 3000 nM.

Source: patent US9388142B2, “Quinazolinone derivatives as PARP inhibitors” (MERCK PATENT GMBH, priority 2012, dated 2016)
